Laboratory results taken from article PMC10870114 (Clinical Cancer Research, 2023).

Columns and labels:
[1] = system: patients with locally advanced rectal cancer; assay: Treatment-emergent adverse events; assay type: in vivo, human
[2] = Plasma pharmacokinetics on fraction day; assay type: in vivo, human
[3] = system: patients with locally advanced head and neck cancer; conditions: NCT02516813; cited from earlier work
[4] = Overall, peposertib 50-250 mg + RT + capecitabine, n = 19
[5] = peposertib 50 mg + RT + capecitabine, n = 1
[6] = peposertib 100 mg + RT + capecitabine, n = 6
[7] = peposertib 150 mg + RT + capecitabine, n = 6
[8] = peposertib 250 mg + RT + capecitabine, n = 6

SMILES: COc1ccc([C@@H](O)c2cc(-c3ncnc4cc(N5CCOCC5)ccc34)c(F)cc2Cl)nn1 [Peposertib]
- Grade 4 TEAE: lymphocyte count decrease ([1]; 100-mg cohort): 1 n
- Grade 4 TEAE: lymphopenia ([1]; 100-mg cohort): 1 n
- Grade 4 TEAE: lymphopenia ([1]; 150-mg cohort): 1 n
- Grade 4 TEAE: enterocolitis ([1]; 250-mg cohort): 1 n
- Grade 4 TEAE: leukopenia and lymphocyte count decrease ([1]; 250-mg cohort): 1 n
- Patients with any Capecitabine-related TEAE [1, 4]: 19 (100) n (%)
- Patients with any Capecitabine-related grade ≥3 TEAE [1, 4]: 10 (53) n (%)
- Patients with any Capecitabine-related grade ≥4 TEAE [1, 4]: 5 (26) n (%)
- Patients with any Capecitabine-related serious TEAE [1, 4]: 5 (26) n (%)
- Patients with any Grade ≥3 TEAE [1, 4]: 14 (74) n (%)
- Patients with any Grade ≥4 TEAE [1, 4]: 5 (26) n (%)
- Patients with any Peposertib-related TEAE [1, 4]: 17 (90) n (%)
- Patients with any Peposertib-related grade ≥ 3TEAE [1, 4]: 13 (68) n (%)
- Patients with any Peposertib-related grade ≥4 TEAE [1, 4]: 5 (26) n (%)
- Patients with any Peposertib-related serious TEAE [1, 4]: 6 (32) n (%)
- Patients with any RT-related TEAE [1, 4]: 19 (100) n (%)
- Patients with any RT-related grade ≥3 TEAE [1, 4]: 9 (47) n (%)
- Patients with any RT-related grade ≥4 TEAE [1, 4]: 4 (21) n (%)
- Patients with any RT-related serious TEAE [1, 4]: 5 (26) n (%)
- Patients with any Serious TEAE [1, 4]: 7 (37) n (%)
- Patients with any TEAE [1, 4]: 19 (100) n (%)
- Patients with any TEAE leading to death [1, 4]: 0 n (%)
- Patients with any TEAE leading to permanent discontinuation of RT [1, 4]: 2 (11) n (%)
- Patients with any TEAE leading to permanent discontinuation of capecitabine [1, 4]: 3 (15.8) n (%)
- Patients with any TEAE leading to permanent discontinuation of peposertib [1, 4]: 4 (21) n (%)
- Patients with any TEAE leading to study discontinuation [1, 4]: 0 n (%)
- Most frequently reported TEAE: fatigue ([1]; across all cohorts, n = 9): 47.4%
- Most frequently reported TEAE: nausea ([1]; across all cohorts, n = 9): 47.4%
- Most frequently reported TEAE: proctitis ([1]; across all cohorts, n = 9): 47.4%
- Most frequently reported TEAE: diarrhea ([1]; across all cohorts, n = 15): 78.9%
- Patients with grade ≥3 TEAE ([1]; all cohorts, 14 of 19 patients): 73.7%
- Grade ≥3 TEAE: diarrhea ([1]; all cohorts, n = 19): 15.8%
- Grade ≥3 TEAE: enterocolitis ([1]; all cohorts, n = 19): 15.8%
- Grade ≥3 TEAE: lymphocyte count decreased ([1]; all cohorts, n = 19): 36.8%
- Grade ≥3 TEAE: lymphopenia ([1]; all cohorts, n = 19): 21.1%
- Patients with any Capecitabine-related TEAE [1, 5]: 1 (100) n (%)
- Patients with any Capecitabine-related grade ≥3 TEAE [1, 5]: 0 (0) n (%)
- Patients with any Capecitabine-related grade ≥4 TEAE [1, 5]: 0 (0) n (%)
- Patients with any Capecitabine-related serious TEAE [1, 5]: 0 n (%)
- Patients with any Grade ≥3 TEAE [1, 5]: 0 (0) n (%)
- Patients with any Grade ≥4 TEAE [1, 5]: 0 (0) n (%)
- Patients with any Peposertib-related TEAE [1, 5]: 1 (100) n (%)
- Patients with any Peposertib-related grade ≥ 3TEAE [1, 5]: 0 (0) n (%)
- Patients with any Peposertib-related grade ≥4 TEAE [1, 5]: 0 (0) n (%)
- Patients with any Peposertib-related serious TEAE [1, 5]: 0 n (%)
- Patients with any RT-related TEAE [1, 5]: 1 (100) n (%)
- Patients with any RT-related grade ≥3 TEAE [1, 5]: 0 (0) n (%)
- Patients with any RT-related grade ≥4 TEAE [1, 5]: 0 (0) n (%)
- Patients with any RT-related serious TEAE [1, 5]: 0 n (%)
- Patients with any Serious TEAE [1, 5]: 0 n (%)
- Patients with any TEAE [1, 5]: 1 (100) n (%)
- Patients with any TEAE leading to death [1, 5]: 0 n (%)
- Patients with any TEAE leading to permanent discontinuation of RT [1, 5]: 0 (0) n (%)
- Patients with any TEAE leading to permanent discontinuation of capecitabine [1, 5]: 0 (0) n (%)
- Patients with any TEAE leading to permanent discontinuation of peposertib [1, 5]: 0 (0) n (%)
- Patients with any TEAE leading to study discontinuation [1, 5]: 0 n (%)
- Patients with any Capecitabine-related TEAE [1, 6]: 6 (100) n (%)
- Patients with any Capecitabine-related grade ≥3 TEAE [1, 6]: 2 (33) n (%)
- Patients with any Capecitabine-related grade ≥4 TEAE [1, 6]: 2 (33) n (%)
- Patients with any Capecitabine-related serious TEAE [1, 6]: 2 (33) n (%)
- Patients with any Grade ≥3 TEAE [1, 6]: 4 (67) n (%)
- Patients with any Grade ≥4 TEAE [1, 6]: 2 (33) n (%)
- Patients with any Peposertib-related TEAE [1, 6]: 5 (83) n (%)
- Patients with any Peposertib-related grade ≥ 3TEAE [1, 6]: 3 (50) n (%)
- Patients with any Peposertib-related grade ≥4 TEAE [1, 6]: 2 (33) n (%)
- Patients with any Peposertib-related serious TEAE [1, 6]: 2 (33) n (%)
- Patients with any RT-related TEAE [1, 6]: 6 (100) n (%)
- Patients with any RT-related grade ≥3 TEAE [1, 6]: 2 (33) n (%)
- Patients with any RT-related grade ≥4 TEAE [1, 6]: 1 (17) n (%)
- Patients with any RT-related serious TEAE [1, 6]: 2 (33) n (%)
- Patients with any Serious TEAE [1, 6]: 3 (50) n (%)
- Patients with any TEAE [1, 6]: 6 (100) n (%)
- Patients with any TEAE leading to death [1, 6]: 0 n (%)
- Patients with any TEAE leading to permanent discontinuation of RT [1, 6]: 0 (0) n (%)
- Patients with any TEAE leading to permanent discontinuation of capecitabine [1, 6]: 0 (0) n (%)
- Patients with any TEAE leading to permanent discontinuation of peposertib [1, 6]: 0 (0) n (%)
- Patients with any TEAE leading to study discontinuation [1, 6]: 0 n (%)
- Patients with any Capecitabine-related TEAE [1, 7]: 6 (100) n (%)
- Patients with any Capecitabine-related grade ≥3 TEAE [1, 7]: 2 (33) n (%)
- Patients with any Capecitabine-related grade ≥4 TEAE [1, 7]: 1 (17) n (%)
- Patients with any Capecitabine-related serious TEAE [1, 7]: 0 n (%)
- Patients with any Grade ≥3 TEAE [1, 7]: 4 (67) n (%)
- Patients with any Grade ≥4 TEAE [1, 7]: 1 (17) n (%)
- Patients with any Peposertib-related TEAE [1, 7]: 5 (83.3) n (%)
- Patients with any Peposertib-related grade ≥ 3TEAE [1, 7]: 4 (67) n (%)
- Patients with any Peposertib-related grade ≥4 TEAE [1, 7]: 1 (17) n (%)
- Patients with any Peposertib-related serious TEAE [1, 7]: 0 n (%)
- Patients with any RT-related TEAE [1, 7]: 6 (100) n (%)
- Patients with any RT-related grade ≥3 TEAE [1, 7]: 2 (33) n (%)
- Patients with any RT-related grade ≥4 TEAE [1, 7]: 1 (17) n (%)
- Patients with any RT-related serious TEAE [1, 7]: 0 n (%)
- Patients with any Serious TEAE [1, 7]: 0 n (%)
- Patients with any TEAE [1, 7]: 6 (100) n (%)
- Patients with any TEAE leading to death [1, 7]: 0 n (%)
- Patients with any TEAE leading to permanent discontinuation of RT [1, 7]: 1 (17) n (%)
- Patients with any TEAE leading to permanent discontinuation of capecitabine [1, 7]: 1 (17) n (%)
- Patients with any TEAE leading to permanent discontinuation of peposertib [1, 7]: 1 (17) n (%)
- Patients with any TEAE leading to study discontinuation [1, 7]: 0 n (%)
- Patients with any Capecitabine-related TEAE [1, 8]: 6 (100) n (%)
- Patients with any Capecitabine-related grade ≥3 TEAE [1, 8]: 6 (100) n (%)
- Patients with any Capecitabine-related grade ≥4 TEAE [1, 8]: 2 (33) n (%)
- Patients with any Capecitabine-related serious TEAE [1, 8]: 3 (50) n (%)
- Patients with any Grade ≥3 TEAE [1, 8]: 6 (100) n (%)
- Patients with any Grade ≥4 TEAE [1, 8]: 2 (33) n (%)
- Patients with any Peposertib-related TEAE [1, 8]: 6 (100) n (%)
- Patients with any Peposertib-related grade ≥ 3TEAE [1, 8]: 6 (100) n (%)
- Patients with any Peposertib-related grade ≥4 TEAE [1, 8]: 2 (33) n (%)
- Patients with any Peposertib-related serious TEAE [1, 8]: 4 (67) n (%)
- Patients with any RT-related TEAE [1, 8]: 6 (100) n (%)
- Patients with any RT-related grade ≥3 TEAE [1, 8]: 5 (83.3) n (%)
- Patients with any RT-related grade ≥4 TEAE [1, 8]: 2 (33) n (%)
- Patients with any RT-related serious TEAE [1, 8]: 3 (50) n (%)
- Patients with any Serious TEAE [1, 8]: 4 (67) n (%)
- Patients with any TEAE [1, 8]: 6 (100) n (%)
- Patients with any TEAE leading to death [1, 8]: 0 n (%)
- Patients with any TEAE leading to permanent discontinuation of RT [1, 8]: 1 (17) n (%)
- Patients with any TEAE leading to permanent discontinuation of capecitabine [1, 8]: 2 (33) n (%)
- Patients with any TEAE leading to permanent discontinuation of peposertib [1, 8]: 3 (50) n (%)
- Patients with any TEAE leading to study discontinuation [1, 8]: 0 n (%)
- Dose proportionality of exposure ([2]; across all dose levels after single and multiple dosing): dose proportional
- half-life ([2]; human, plasma, oral, Mean terminal half-life, all dosing groups, independent of the dose level): 5 to 6 h
- Accumulation after multiple once-daily dosing ([2]; in vivo): No relevant peposertib accumulation
- Safety of combination with RT and full doses of cisplatin [3]: could not be safely combined
